Results from US20180352845A1, “NUTRITIONAL COMPOSITIONS AND INFANT FORMULAS TO PROMOTE MYELINATION IN THE BRAIN” (NESTEC S.A., priority 2015, published 2018).

What follows are molecules tested on brain myelination (myelin water fraction) (assay: Cross-sectional correlation analysis (GLM) of infant formula nutrient composition vs brain myelination by mcDESPOT MRI). Details: children up to 5 years fed different infant formulas during infancy; voxel-wise correlations, p<0.05 corrected; inter-variable correlation threshold 0.9.
Assay type: in vivo, human
Experimental: MRI brain scans of infants and children between 0 and 5 years were acquired using a white matter imaging technique. This technique provides a quantitative measure, the Myelin Water Fraction (MWF), which is a surrogate marker of myelin content. When mapped as a function of time across early childhood, myelination trajectories can be generated.
Infant formula composition: six infant formulas fed to infants participating in study were analyzed for their composition/level of myelin-relevant nutrients.
Infants included in this study were drawn from a larger longitudinal study of normal brain and behavioral development: the Brown university Assessment of Myelination and Behavior Across Maturation (BAMBAM). To focus on neurotypical development, children with known potential risk factors for learning, neurologic, or psychiatric disorders were specifically excluded during recruitment and enrollment. Thus, children with in utero alcohol or illicit substance exposure, premature (<37 weeks gestation) or multiple birth, fetal ultrasound abnormalities, complicated pregnancy (e.g., preeclampsia), APGAR scores <8, NICU admission, neurological disorder (e.g., head injury, epilepsy), psychiatric or developmental disorders in the infant, parents or siblings (including maternal depression requiring medication) were excluded. Ongoing screenings, such as the MCAT for autism, or CBCL for behavioral problems, were further used to remove enrolled children with clinically concerning behaviors or overt medical conditions (such as autism spectrum disorders).
A combination of retrospective and prospective data were acquired from parents via detailed medical histories and parental interview on type of infant formula used, percentage of breastfeeding to formula feeding, and length of exclusive breastfeeding. This information was updated at each study visit, which occurred approximately every 6 months for children under 2 years, and yearly for older children. Using this information, children were categorized into one of 2 groups: #1. Exclusively formula-fed; and #2. Exclusively breastfed for at least 90 days (3 months). Children who were fed a combination of breastmilk and formula within 3 months were excluded from our analysis. Infants within the exclusively formula-fed group were further sub-divided based on parental reports of the main infant formula used throughout the first 3 months. Main formula was defined as that given 90% of the time or more (in the case were parents used an alternate brand during vacation, for example).
Using these criteria, 94 exclusively formula-fed infants and young children were selected into group #1. These included 13 children who received formula #2; 28 who received formula #5; 8 who received formula #3; 39 who received formula #4; 5 who received formula #1 and 1 who received formula #6. A sample of 52 exclusively breast-fed infants were also selected and matched to the over formula-fed group with regards to mean age, gestation duration, birth weight, male:female ratio, ethnicity ratio, maternal education, family size, and number of languages spoken in the home (in addition to English).
Each infant was scanned using the mcDESPOT (multicomponent Driven Equilibrium Single Pulse Observation of T1 and T2) white matter imaging technique Deoni et al. (Magn. Reson. Med. 2008, 60:1372-1387), which provides a quantitative measure of the myelin water fraction (MWF) at each imaging point throughout the brain. All infants were scanned during natural (i.e. non-sedated) sleep using acoustically-muffled mcDESPOT imaging protocols. Total imaging times ranged from 19 minutes for the youngest toddlers to 24 minutes for the older 4 year-old children.
With phosphatidylcholine the “nutritional drivers for myelination indicated by the final general linear model” value (“nutritional drivers” below) was “identified drivers”. With sphingomyelin the “nutritional drivers” value was “identified drivers”. For phosphatidylinositol, the “nutritional drivers” value was “identified drivers”. In the case of `[Ca+2]` [calcium], the “nutritional drivers” value is reported as “identified drivers”. For `[Zn]` [zinc], the “nutritional drivers” value was “identified drivers”. In the case of `[Mg+2]` [Magnesium], the “nutritional drivers” value is reported as “identified drivers”. With `CCCCC/C=C\C/C=C\C/C=C\C/C=C\CCCC(=O)O` [ARA, arachidonic acid] the “nutritional drivers” value was “identified drivers”. In the case of `[P]` [phosphorus], the “nutritional drivers” value is reported as “identified drivers”. iron was tested, and the “nutritional drivers” value was “identified drivers”.
